Reference: PMC8097418, “In Vitro and In Vivo Antibacterial Activities of a Novel Quinolone Compound, OPS-2071, against Clostridioides difficile” (Antimicrobial Agents and Chemotherapy, 2021)
Converted amounts (≈) assume the structure as drawn. Read-outs that look alike come from different tables or passages of the source.

How the values were obtained:
C. difficile ATCC 43255 [1] = system: C. difficile ATCC 43255; set-up: method as in PMID 22869573; details: cited from earlier work
C. difficile ATCC 700057 [2] = assay: Postantibiotic effect (PAE); assay type: cell-based, Clostridioides difficile; details: for Postantibiotic effect: 1 h exposure
Experimental: C. difficile ATCC 700057 was cultured in GAM agar and adjusted in GAM broth to approximately 10^6 CFU/ml. The bacterial suspensions were preincubated at 37°C for 1 h. […] After preincubation, test and reference solutions were added to each bacterial suspension in a test tube, and the suspensions were cultured for 1 h. After exposure to the test compounds, bacterial suspensions were washed with GAM broth and cultured for 6 h. […] The PAE was defined according to Craig and Gudmundsson as PAE = T − C, where T is the time required for the viable counts of the exposed bacteria to increase by 1 log10 above the counts observed immediately after washing, and C is the corresponding time for the antibiotic unexposed controls ([44]).

[3] = system: 10 clinical isolates of C. difficile; assay: MIC (broth dilution) and MBC testing, 10 clinical isolates; assay type: cell-based, Clostridioides difficile; details: for MBC Range: >99.9% reduction within 48 h; for MIC90 / MBC: Clostridioides difficile; for MBC: read-out: MBC90
Experimental: In this test, MIC testing was performed using the broth dilution method as recommended in the CLSI ([41]). After the MICs were determined, 10 μl of the bacterial suspension from the MIC test tube was inoculated onto agar plates and incubated at 37°C. The bacterial colonies were then counted and bacterial numbers were calculated. The MBC was considered to be the lowest concentration of the antibiotics that prevented growth and reduced the inoculum by >99.9% within 48 h, irrespective of counts of survivors at higher antibiotic concentrations.

C. difficile ATCC 43255 [4] = assay: MIC against the infection strain; assay type: cell-based, Clostridioides difficile
C. difficile ATCC 700057 [5] = assay type: cell-based, Clostridioides difficile
[6] = system: hypervirulent and nonhypervirulent strains of C. difficile (62 strains); assay: MIC distribution against 20 hypervirulent and 42 nonhypervirulent strains; assay type: cell-based, Clostridioides difficile
C. difficile ATCC 700057 [7] = assay: MIC by broth dilution (GAM broth); assay type: cell-based, Clostridioides difficile
Experimental: (§1) MICs obtained using the agar dilution method were determined visually as described for the CLSI method ([41], [42]). MICs obtained using the broth dilution method were determined visually based on the CLSI method except for using Gifu anaerobic medium (GAM) broth instead of supplemented Brucella broth ([41], [42]).

C. difficile ATCC 700057 [8] = assay: Mutant prevention concentration; assay type: cell-based, Clostridioides difficile; details: approximately 10^10 CFU, 3 days
Experimental: The mutant prevention concentration was measured by plating approximately 10^10 CFU of C. difficile ATCC 700057 onto a GAM agar plate containing the test agent. Inoculated plates were incubated for 3 days, and the MIC for each antibiotic that prevented the growth of colonies was determined using the agar dilution method as described by the CLSI ([41]). The MIC values of grown colonies were compared to determine which bacteria were resistant. The MPC was defined as the lowest concentration that prevented the growth of resistant bacteria.

C. difficile ATCC 43255 [9] = assay: In vivo hamster model of C. difficile infection; set-up: species or system golden Syrian hamsters; details: for 50% effective dose (ED50): survival on day 20, oral once daily for 5 days, probit method; for dosages with significant efficacy compared with vehicle control: survival, log-rank test
Experimental: C. difficile ATCC 43255 was cultured on GAM agar, and a bacterial suspension was prepared in saline ([26]). […] Hamsters were infected using oral gavage with 0.5 ml of suspension containing approximately 10^6 CFU of C. difficile (day −1). The next day, the animals were administered clindamycin phosphate (0.2 mg/ml in water) by oral gavage at a dose of 5 ml/kg of body weight, for a final dose of 1 mg/kg (day 0). The animals were allocated to the test groups using a stratified randomization method based on the body weight of each infected animal. The test compounds were administered by oral gavage once daily for 5 days (OPS-2071, 0.008 to 1 mg/kg; fidaxomicin, 0.04 mg/kg to 5 mg/kg; vancomycin, 0.04 to 5 mg/kg [5-fold dilution]). Infected control animals were administered 5% (wt/vol) gum arabic solution by oral gavage. […] The cecal contents of dead animals were tested for toxin A and toxin B using C.Diff Quik Chek Complete (Abbott Diagnostics Medical Co., Ltd., Tokyo, Japan) to confirm that the death of the animal was due to CDI.
The statistical significance of OPS-2071, fidaxomicin, and vancomycin treatment was analyzed at all doses against vehicle. Survival curves were estimated for each group using the Kaplan-Meier method. Differences in survival homogeneity in each group were evaluated with a log-rank test with Dunnett-type (two-sided) comparison.

C. difficile ATCC 700057 [10] = assay: MIC by agar dilution (CLSI) against quality control strain; assay type: cell-based, Clostridioides difficile
Experimental: as §1

C. difficile ATCC 700057 [11] = assay: Effect of pH on MIC (agar dilution); assay type: cell-based, Clostridioides difficile; details: Clostridioides difficile
[12] = system: 54 clinically isolated C. difficile strains; assay: MIC by agar dilution against 54 clinically isolated strains; assay type: cell-based, Clostridioides difficile; details: for MIC90 / MIC50: Clostridioides difficile, 54 clinically isolated C. difficile strains; for MIC50: read-out: MIC50
Experimental: as §1

[13] = cited from earlier work
C. difficile ATCC 700057 [14] = assay: Killing kinetics (time-kill curves); assay type: cell-based, Clostridioides difficile; details: time-kill, up to 48 h
Experimental: The test tubes were incubated for 48 h. The CFU/ml values of the bacterial suspensions were calculated at 0, 2, 4, 6, 24, and 48 h by culturing 0.1-ml samples of serial 10-fold dilutions on GAM agar plates at 37°C under anaerobic conditions and then counting the number of growing colonies. The CFU/ml value at each time point is from one sample of datum.

[15] = molecular target: DNA gyrase of C. difficile (Clostridioides difficile, UniProt Q18C89+Q18C90); assay: biochemical
Sequence of DNA gyrase of C. difficile (Q18C90 entry or part of it): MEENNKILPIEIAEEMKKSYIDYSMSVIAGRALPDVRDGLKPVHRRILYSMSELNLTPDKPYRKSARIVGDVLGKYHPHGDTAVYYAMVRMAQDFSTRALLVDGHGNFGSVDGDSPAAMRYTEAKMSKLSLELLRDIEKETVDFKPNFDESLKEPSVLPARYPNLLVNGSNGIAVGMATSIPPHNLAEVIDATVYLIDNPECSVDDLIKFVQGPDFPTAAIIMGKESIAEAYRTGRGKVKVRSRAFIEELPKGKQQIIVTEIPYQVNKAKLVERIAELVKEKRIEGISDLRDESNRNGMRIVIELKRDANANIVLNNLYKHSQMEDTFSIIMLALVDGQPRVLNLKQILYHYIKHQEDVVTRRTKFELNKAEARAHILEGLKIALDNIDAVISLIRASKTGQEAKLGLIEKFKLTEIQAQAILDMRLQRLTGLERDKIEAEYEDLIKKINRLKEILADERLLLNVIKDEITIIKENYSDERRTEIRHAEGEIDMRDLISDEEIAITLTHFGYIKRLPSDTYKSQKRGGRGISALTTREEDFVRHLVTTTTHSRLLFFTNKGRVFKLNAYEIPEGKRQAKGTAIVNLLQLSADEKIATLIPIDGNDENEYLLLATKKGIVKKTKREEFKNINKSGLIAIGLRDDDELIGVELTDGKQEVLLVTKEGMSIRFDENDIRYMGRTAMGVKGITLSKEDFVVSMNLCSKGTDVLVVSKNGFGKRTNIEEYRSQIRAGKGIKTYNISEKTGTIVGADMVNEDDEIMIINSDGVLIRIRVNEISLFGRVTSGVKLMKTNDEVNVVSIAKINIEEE
Sequence of DNA gyrase of C. difficile (Q18C89 entry or part of it): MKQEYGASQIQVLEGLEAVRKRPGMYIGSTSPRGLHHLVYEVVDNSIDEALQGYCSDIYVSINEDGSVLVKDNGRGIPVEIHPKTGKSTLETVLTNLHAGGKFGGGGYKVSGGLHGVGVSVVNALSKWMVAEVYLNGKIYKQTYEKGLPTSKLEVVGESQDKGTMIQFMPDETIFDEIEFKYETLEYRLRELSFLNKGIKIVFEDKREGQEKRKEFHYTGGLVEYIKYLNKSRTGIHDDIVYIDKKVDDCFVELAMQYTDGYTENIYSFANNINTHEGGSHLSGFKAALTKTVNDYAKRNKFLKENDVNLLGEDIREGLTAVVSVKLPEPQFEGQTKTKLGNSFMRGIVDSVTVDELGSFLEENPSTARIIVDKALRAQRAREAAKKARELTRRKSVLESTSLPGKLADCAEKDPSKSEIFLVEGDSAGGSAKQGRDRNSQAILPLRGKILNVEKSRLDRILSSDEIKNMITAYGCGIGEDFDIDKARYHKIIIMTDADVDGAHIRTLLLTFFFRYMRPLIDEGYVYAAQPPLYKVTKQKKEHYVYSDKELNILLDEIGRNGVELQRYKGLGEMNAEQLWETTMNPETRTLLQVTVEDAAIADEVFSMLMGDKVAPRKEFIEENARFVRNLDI

[16] = 10 clinical isolates, broth dilution
[17] = 10 clinical isolates, broth dilution, read-out: MIC90
[18] = Clostridioides difficile, hypervirulent strains (n = 20)
[19] = Clostridioides difficile, nonhypervirulent strains (n = 42)
[20] = nonhypervirulent strains (n = 42)
[21] = Clostridioides difficile, ATCC700057, broth dilution, retested for the time-kill assay, read-out: MIC
[22] = Clostridioides difficile, ATCC700057, quality control strain ATCC 700057, CLSI method, read-out: MIC

SMILES	PAEs at 4- and 8-fold the MIC (C. difficile ATCC 700057 [2]) [h]	Postantibiotic effect (C. difficile ATCC 700057 [2]; 4× MIC) [h]	Postantibiotic effect (C. difficile ATCC 700057 [2]; 8× MIC) [h]	MBC Range ([3]; 10 clinical isolates) [µg/mL]	MIC range [3, 16] [µg/mL]	MIC90 [3, 17] [µg/mL]	MBC ([3]; 10 clinical isolates) [µg/mL]	MIC (C. difficile ATCC 43255 [4]) [µg/mL]	Frequency of spontaneous resistance (C. difficile ATCC 700057 [5]; 4× MIC)	Frequency of spontaneous resistance (C. difficile ATCC 700057 [5]; 16× MIC)	Frequency of spontaneous resistance (C. difficile ATCC 700057 [5]; 64× MIC)	MIC50 [6, 18] [µg/mL]	MIC90 [6, 18] [µg/mL]	MIC50 [6, 19] [µg/mL]	MIC90 [6, 19] [µg/mL]	MIC range ([6]; hypervirulent strains (n = 20)) [µg/mL]	MIC range [6, 20] [µg/mL]	MIC (C. difficile ATCC 700057 [7]; [21]) [µg/mL]	MIC90 [12] [µg/mL]	MIC50 [12] [µg/mL]	other results
CCC[C@@H]1C[C@@H](C(=O)N[C@@H]([C@H]2O[C@H](SC)[C@H](O)[C@@H](O)[C@H]2O)[C@H](C)Cl)N(C)C1 [clindamycin]	–	–	–	–	–	–	–	–	–	–	–	–	–	–	–	–	–	–	–	–	MIC (C. difficile ATCC 43255 [1]): 8 µg/mL (≈ 18.8 µM)
CCc1c(Cl)c(O)c(Cl)c(O)c1C(=O)O[C@H]1[C@H](O)[C@H](OC)[C@H](OC/C2=C\C=C\C[C@H](O)/C(C)=C/[C@H](CC)[C@@H](O[C@@H]3OC(C)(C)[C@@H](OC(=O)C(C)C)[C@H](O)[C@@H]3O)/C(C)=C/C(C)=C/C[C@@H]([C@@H](C)O)OC2=O)O[C@@H]1C [Fidaxomicin]	2.86 to 2.77	2.86	2.77	0.06 to 0.25	0.06 to 0.25	0.125 (≈ 0.118 µM)	0.25 (≈ 0.236 µM)	0.06 (≈ 0.0567 µM)	1.47 × 10^–7	<9.17 × 10^–9	<9.17 × 10^–9	0.25 (≈ 0.236 µM)	0.25 (≈ 0.236 µM)	0.06 (≈ 0.0567 µM)	0.25 (≈ 0.236 µM)	0.125 to 0.5	0.008 to 0.5	0.03 (≈ 0.0284 µM)	8 (≈ 7.56 µM)	0.063 (≈ 0.0595 µM)	MIC90 ([6]; Clostridioides difficile, all 62 strains): 0.25 µg/mL (≈ 0.236 µM); Cumulative percentage of strains ([6]; Hyp (n = 20), MIC 0.063 μg/ml): 0%; Cumulative percentage of strains ([6]; Non-hyp (n = 42), MIC 0.008 μg/ml): 5%; Cumulative percentage of strains ([6]; Non-hyp (n = 42), MIC 0.063 μg/ml): 52%; Cumulative percentage of strains ([6]; Non-hyp (n = 42), MIC <0.004 μg/ml): 0%; MIC (C. difficile ATCC 700057 [7]; Clostridioides difficile, ATCC700057, broth method, determined for the PAE assay, read-out: MIC): 0.06 µg/mL (≈ 0.0567 µM); mutant prevention concentration (MPC) (C. difficile ATCC 700057 [8]): 8 µg/mL; 50% effective dose (ED50) (C. difficile ATCC 43255 [9]): 1.63 mg/kg/day; dosages with significant efficacy compared with vehicle control (C. difficile ATCC 43255 [9]): ≥ 1 mg/kg; MIC (C. difficile ATCC 700057 [10]; Clostridioides difficile, ATCC700057, agar dilution, determined for the spontaneous resistance assay, read-out: MIC): 0.06 µg/mL (≈ 0.0567 µM); MIC (C. difficile ATCC 700057 [10]; [22]): 0.063 µg/mL (≈ 0.0595 µM); MIC (C. difficile ATCC 700057 [11]; ATCC700057, pH 6): 0.03 µg/mL (≈ 0.0284 µM); MIC (C. difficile ATCC 700057 [11]; ATCC700057, pH 7): 0.06 µg/mL (≈ 0.0567 µM); MIC (C. difficile ATCC 700057 [11]; ATCC700057, pH 8): 0.06 µg/mL (≈ 0.0567 µM); oral absorption ([13]; plasma concentrations in the low nanogram per milliliter range or lower): minimally absorbed
CN[C@H](CC(C)C)C(=O)N[C@H]1C(=O)N[C@@H](CC(N)=O)C(=O)N[C@H]2C(=O)N[C@H]3C(=O)N[C@H](C(=O)N[C@H](C(=O)O)c4cc(O)cc(O)c4-c4cc3ccc4O)[C@H](O)c3ccc(c(Cl)c3)Oc3cc2cc(c3O[C@@H]2O[C@H](CO)[C@@H](O)[C@H](O)[C@H]2O[C@H]2C[C@](C)(N)[C@H](O)[C@H](C)O2)Oc2ccc(cc2Cl)[C@H]1O [Vancomycin]	1.03 to 1.25	1.03	1.25	4 to 8	2 to 4	–	–	2 (≈ 1.38 µM)	<9.17 × 10^–9	<9.17 × 10^–9	<9.17 × 10^–9	–	–	–	–	1 to 2	0.5 to 4	4 (≈ 2.76 µM)	4 (≈ 2.76 µM)	2 (≈ 1.38 µM)	MIC90 [3]: 4 µg/mL (≈ 2.76 µM); MBC [3]: 8 µg/mL (≈ 5.52 µM); MIC50 ([6]; Clostridioides difficile, hypervirulent strains (n = 20), read-out: MIC50): 1 µg/mL (≈ 0.69 µM); MIC90 ([6]; Clostridioides difficile, hypervirulent strains (n = 20), read-out: MIC90): 1 µg/mL (≈ 0.69 µM); MIC90 ([6]; Clostridioides difficile, nonhypervirulent strains (n = 42), read-out: MIC90): 2 µg/mL (≈ 1.38 µM); MIC50 [6, 20]: 1 µg/mL (≈ 0.69 µM); MIC (C. difficile ATCC 700057 [7]; broth method, determined for the PAE assay): 4 µg/mL (≈ 2.76 µM); mutant prevention concentration (MPC) (C. difficile ATCC 700057 [8]): 8 µg/mL; concentration needed for an undetectable level to be reached (C. difficile ATCC 700057 [14]): over 2 fold MIC; 50% effective dose (ED50) (C. difficile ATCC 43255 [9]): 1.22 mg/kg/day; dosages with significant efficacy compared with vehicle control (C. difficile ATCC 43255 [9]): ≥ 1 mg/kg; MIC (C. difficile ATCC 700057 [10]; [22]): 2 µg/mL (≈ 1.38 µM); MIC (C. difficile ATCC 700057 [10]; agar dilution, determined for the spontaneous resistance assay): 2 µg/mL (≈ 1.38 µM); MIC (C. difficile ATCC 700057 [11]; ATCC700057, pH 6): 2 µg/mL (≈ 1.38 µM); MIC (C. difficile ATCC 700057 [11]; ATCC700057, pH 7): 2 µg/mL (≈ 1.38 µM); MIC (C. difficile ATCC 700057 [11]; ATCC700057, pH 8): 2 µg/mL (≈ 1.38 µM); oral bioavailability [13]: < 10%
C[C@H]1COc2c(N3CCN(C)CC3)c(F)cc3c(=O)c(C(=O)O)cn1c23 [Levofloxacin]	–	–	–	–	–	–	–	–	–	–	–	–	–	–	–	–	–	–	> 128	128 (≈ 354 µM)	IC50 [15]: 31.8 µM; activity against C. difficile isolates ([12]; 54 clinical isolates): inactive
Cc1ncc([N+](=O)[O-])n1CCO [Metronidazole]	–	–	–	1 to 4	1 to 4	4 (≈ 23.4 µM)	4 (≈ 23.4 µM)	–	–	–	–	0.5 (≈ 2.92 µM)	1 (≈ 5.84 µM)	0.25 (≈ 1.46 µM)	0.5 (≈ 2.92 µM)	0.25 to 16	0.25 to 1	0.5 (≈ 2.92 µM)	4 (≈ 23.4 µM)	2 (≈ 11.7 µM)	Cumulative percentage of strains ([6]; Non-hyp (n = 42), MIC […] μg/ml): 100%; concentration needed for an undetectable level to be reached (C. difficile ATCC 700057 [14]): over 2 fold MIC
